Where no end group is shown, it is not given here.
Tests used:
[1] = test system: target cells 195M (MAGED4B) and C666.1F (FJX1)
Experimental: The cytotoxic ELISPOT assay was used to study the response of peptide-pulsed CTLs derived from the patients to target cell lines overexpressing the target antigens. CTLs were co-cultured with target cells, where this culture was re-suspended in complete culture media supplemented with IL-7 and interleukin 2 (IL-2) proteins and applied to IFNγ and granzyme B ELISPOT plates. The cell suspension was further incubated to allow the interaction between CTLs and target cell line before determining the potential killing ability of CTLs against FJX1 and MAGED4b expressing target cells.
Dendritic cells from patients were isolated and subsequently used as antigen presenting cells. Briefly, PBMCs were re-suspended in macrophage-serum free media (M-SFM) (Gibco, Thermo Fisher, MA, USA), seeded in a 6-well plate and incubated for 1 hour at 37° C. After incubation, non-adherent cells from PBMCs were collected, rinsed in HBSS and then re-suspended in complete culture media contained 10 ng/ml IL-7. Approximately 2-5×10^5 cells per well were seeded into round bottom 96-well plates. Cells were then incubated for 2-5 days at 37° C. for T cell expansion with the addition of 50 μg/ml of peptides. The adherent cells resulting from the incubation, were cultured at 37° C. for 2-5 days in M-SFM in the presence of 100 ng/ml GM-CSF and 25 ng/ml IL-4 to induce differentiation of dendritic cells (DCs). […]

[2] = test system: recurrent or metastatic HNSCC; conditions: human, in vivo; cited from earlier work
[3] = test system: HNSCC; conditions: cited from earlier work
[4] = test system: mouse macrophage cell line RAW264.7

In the case of SLYNTYATL [HIV peptide], the “IFNγ and granzyme B secretion / cytotoxic T cell response after in vitro peptide stimulation” value [1] is reported as “induces increased levels of IFNγ and Granzyme B secretion”.

For pembrolizumab, the “objective response rate (complete or partial response of tumour size reduction)” value [2] is given as 16%.

For nivolumab, the “overall survival rate of HNSCC patients” value ([3]; 16% in standard therapy group) is given as 36%, the “grade 3 or grade 4 events versus standard therapy” value ([3]; human, in vivo) is given as “fewer grade 3 or grade 4 events” and the “response rate of HNSCC patients” value ([3]; human, in vivo) is given as 13%. The “survival longer than standard therapy group” value ([3]; human, in vivo) was 2.4 months.

With WLLALGSLLAL [F1, WLLALGSLLAL] the “degree of inflammation / iNOS accumulation” value [4] was “low” and the “production of nitrite, fold lower than LPS positive control” value [4] was 10 fold.

With RLSLLLVIL [M6] the “degree of inflammation / iNOS accumulation” value [4] was “low”.
